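How tested: cells in 96-well plates exposed to compound for 48 hours at five concentrations. The concentration for 50% growth inhibition is given as GI50.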 The source made the active and inactive calls. Cut-off read from the data, not from the text of the source: active = GI50 up to about 1.1 µM and inactive = higher.
How the values were obtained:
Experiment in all cases: growth of human tumour cells (NCI), 48 h
[1] = tested on: SK-MEL-2
[2] = tested on: PC-3
[3] = tested on: SR
[4] = tested on: RXF 393
[5] = tested on: T47D
[6] = tested on: LOX IMVI
[7] = tested on: KM12
[8] = tested on: NCI-H522
[9] = tested on: UACC-62
[10] = tested on: UO-31
[11] = tested on: HCT-15
[12] = tested on: OVCAR-8
[13] = tested on: MDA-MB-231
[14] = tested on: TK-10
[15] = tested on: M14
[16] = tested on: UACC-257
[17] = tested on: RPMI-8226
[18] = tested on: SK-MEL-5
[19] = tested on: NCI-H23
[20] = tested on: HOP-92
[21] = tested on: K562
[22] = tested on: CCRF-CEM
[23] = tested on: NCI-H226
[24] = tested on: OVCAR-5
[25] = tested on: HCT-116
[26] = tested on: NCI/ADR-RES
[27] = tested on: MDA-MB-435
[28] = tested on: NCI-H460
[29] = tested on: OVCAR-3
[30] = tested on: COLO 205
[31] = tested on: A498
[32] = tested on: CAKI-1
[33] = tested on: U-251
[34] = tested on: Hs-578T
[35] = tested on: SF-295
[36] = tested on: OVCAR-4
[37] = tested on: HCC 2998
[38] = tested on: IGROV-1
[39] = tested on: ACHN
[40] = tested on: HT-29
[41] = tested on: SK-MEL-28
[42] = tested on: HL-60
[43] = tested on: SF-268
[44] = tested on: DU-145
[45] = tested on: Malme-3M
[46] = tested on: HOP-62
[47] = tested on: MOLT-4
[48] = tested on: SNB-75
[49] = tested on: SW-620
[50] = tested on: EKVX
[51] = tested on: 786-0
[52] = tested on: A549
[53] = tested on: BT-549
[54] = tested on: SNB-19
[55] = tested on: SK-OV-3
[56] = tested on: MCF7
[57] = tested on: SF-539
[58] = tested on: MDA-N
[59] = tested on: SN12C

Compound: O=C1CNc2cc(N3CCN(c4ccccc4)CC3)ccc2N1
- GI50 [1]: > 100 µM (inactive)
- GI50 [2]: > 100 µM (inactive)
- GI50 [3]: > 100 µM (inactive)
- GI50 [4]: > 100 µM (inactive)
- GI50 [5]: > 100 µM (inactive)
- GI50 [6]: > 100 µM (inactive)
- GI50 [7]: > 100 µM (inactive)
- GI50 [8]: > 100 µM (inactive)
- GI50 [9]: > 100 µM (inactive)
- GI50 [10]: > 100 µM (inactive)
- GI50 [11]: > 100 µM
- GI50 [12]: > 100 µM (inactive)
- GI50 [13]: > 100 µM (inactive)
- GI50 [14]: > 100 µM (inactive)
- GI50 [15]: > 100 µM (inactive)
- GI50 [16]: > 100 µM (inactive)
- GI50 [17]: > 100 µM (inactive)
- GI50 [18]: > 100 µM (inactive)
- GI50 [19]: > 100 µM (inactive)
- GI50 [20]: > 100 µM (inactive)
- GI50 [21]: > 100 µM (inactive)
- GI50 [22]: > 100 µM (inactive)
- GI50 [23]: > 100 µM (inactive)
- GI50 [24]: > 100 µM (inactive)
- GI50 [25]: > 100 µM (inactive)
- GI50 [26]: > 100 µM (inactive)
- GI50 [27]: > 100 µM (inactive)
- GI50 [28]: > 100 µM (inactive)
- GI50 [29]: > 100 µM (inactive)
- GI50 [30]: > 100 µM (inactive)
- GI50 [31]: > 100 µM (inactive)
- GI50 [32]: > 100 µM (inactive)
- GI50 [33]: > 100 µM (inactive)
- GI50 [34]: > 100 µM (inactive)
- GI50 [35]: > 100 µM (inactive)
- GI50 [36]: > 100 µM (inactive)
- GI50 [37]: > 100 µM (inactive)
- GI50 [38]: > 100 µM (inactive)
- GI50 [39]: > 100 µM (inactive)
- GI50 [40]: > 100 µM (inactive)
- GI50 [41]: > 100 µM (inactive)
- GI50 [42]: > 100 µM (inactive)
- GI50 [43]: > 100 µM (inactive)
- GI50 [44]: > 100 µM (inactive)
- GI50 [45]: > 100 µM (inactive)
- GI50 [46]: > 100 µM (inactive)
- GI50 [47]: > 100 µM (inactive)
- GI50 [48]: > 100 µM (inactive)
- GI50 [49]: > 100 µM (inactive)
- GI50 [50]: 34.1 µM (inactive)
- GI50 [51]: > 100 µM (inactive)
- GI50 [52]: > 100 µM (inactive)
- GI50 [53]: > 100 µM (inactive)
- GI50 [54]: > 100 µM (inactive)
- GI50 [55]: > 100 µM (inactive)

Compound: COCO[C@@H]1C[C@H]2C(O)Nc3ccccc3C(=O)N2C1 (stereo not given in full)
- GI50 [1]: > 100 µM (inactive)
- GI50 [2]: > 100 µM (inactive)
- GI50 [3]: > 100 µM (inactive)
- GI50 [56]: > 100 µM (inactive)
- GI50 [4]: > 100 µM (inactive)
- GI50 [5]: > 100 µM (inactive)
- GI50 [57]: > 100 µM (inactive)
- GI50 [6]: > 100 µM (inactive)
- GI50 [7]: > 100 µM (inactive)
- GI50 [9]: > 100 µM (inactive)
- GI50 [10]: > 100 µM (inactive)
- GI50 [11]: > 100 µM
- GI50 [12]: > 100 µM (inactive)
- GI50 [13]: > 100 µM (inactive)
- GI50 [14]: > 100 µM (inactive)
- GI50 [15]: > 100 µM (inactive)
- GI50 [16]: > 100 µM (inactive)
- GI50 [17]: > 100 µM (inactive)
- GI50 [18]: > 100 µM (inactive)
- GI50 [58]: > 100 µM (inactive)
- GI50 [19]: > 100 µM (inactive)
- GI50 [20]: > 100 µM (inactive)
- GI50 [21]: > 100 µM (inactive)
- GI50 [22]: > 100 µM (inactive)
- GI50 [23]: > 100 µM (inactive)
- GI50 [24]: > 100 µM (inactive)
- GI50 [26]: > 100 µM (inactive)
- GI50 [27]: > 100 µM (inactive)
- GI50 [28]: > 100 µM (inactive)
- GI50 [29]: > 100 µM (inactive)
- GI50 [30]: > 100 µM (inactive)
- GI50 [31]: > 100 µM (inactive)
- GI50 [32]: > 100 µM (inactive)
- GI50 [33]: > 100 µM (inactive)
- GI50 [34]: > 100 µM (inactive)
- GI50 [35]: > 100 µM (inactive)
- GI50 [36]: > 100 µM (inactive)
- GI50 [37]: > 100 µM (inactive)
- GI50 [38]: > 100 µM (inactive)
- GI50 [39]: > 100 µM (inactive)
- GI50 [40]: > 100 µM (inactive)
- GI50 [41]: > 100 µM (inactive)
- GI50 [42]: > 100 µM (inactive)
- GI50 [43]: > 100 µM (inactive)
- GI50 [44]: > 100 µM (inactive)
- GI50 [46]: > 100 µM (inactive)
- GI50 [47]: > 100 µM (inactive)
- GI50 [48]: > 100 µM (inactive)
- GI50 [49]: > 100 µM (inactive)
- GI50 [50]: > 100 µM (inactive)
- GI50 [52]: > 100 µM (inactive)
- GI50 [54]: > 100 µM (inactive)
- GI50 [55]: > 100 µM (inactive)

Compound: COc1ccc(-c2cc(O)c3c(C)cc(C)nc3n2)cc1
- GI50 [1]: 43.1 µM (inactive)
- GI50 [56]: 15.3 µM (inactive)
- GI50 [4]: 49.7 µM (inactive)
- GI50 [5]: 28.2 µM (inactive)
- GI50 [57]: > 100 µM (inactive)
- GI50 [6]: 27.4 µM (inactive)
- GI50 [7]: 34.8 µM (inactive)
- GI50 [8]: 38.1 µM (inactive)
- GI50 [9]: 18.4 µM (inactive)
- GI50 [10]: 38 µM (inactive)
- GI50 [11]: 24.4 µM
- GI50 [12]: 33.5 µM (inactive)
- GI50 [13]: 17.7 µM (inactive)
- GI50 [14]: 25.1 µM (inactive)
- GI50 [15]: 35.3 µM (inactive)
- GI50 [16]: 25.9 µM (inactive)
- GI50 [17]: 18 µM (inactive)
- GI50 [19]: 28.6 µM (inactive)
- GI50 [20]: 26.9 µM (inactive)
- GI50 [21]: 23 µM (inactive)
- GI50 [22]: 16.9 µM (inactive)
- GI50 [23]: 35 µM (inactive)
- GI50 [24]: > 100 µM (inactive)
- GI50 [26]: 33.4 µM (inactive)
- GI50 [30]: 20.8 µM (inactive)
- GI50 [31]: 30.5 µM (inactive)
- GI50 [32]: 22.9 µM (inactive)
- GI50 [34]: 27.7 µM (inactive)
- GI50 [36]: 26.4 µM (inactive)
- GI50 [37]: 43.2 µM (inactive)
- GI50 [38]: 23.3 µM (inactive)
- GI50 [39]: 44.1 µM (inactive)
- GI50 [40]: 20.3 µM (inactive)
- GI50 [59]: 44.3 µM (inactive)
- GI50 [41]: 47.9 µM (inactive)
- GI50 [42]: 15.8 µM (inactive)
- GI50 [43]: 53 µM (inactive)
- GI50 [44]: 48.4 µM (inactive)
- GI50 [45]: 29 µM (inactive)
- GI50 [46]: 26.8 µM (inactive)
- GI50 [47]: 16 µM (inactive)
- GI50 [49]: 38.9 µM (inactive)
- GI50 [50]: 45.2 µM (inactive)
- GI50 [52]: 55.3 µM (inactive)
- GI50 [53]: 26.4 µM (inactive)
- GI50 [54]: 49.4 µM (inactive)
- GI50 [55]: > 100 µM (inactive)
